Counter-ions that a name gives are not always drawn.
Tested on: HCV replicon I389luc-ubi-neo/NS3-3′/ET in ET (Huh-lucubineo-ET) cells; screening for HCV RNA dependent RNA polymerase
Assay: Replicon Assay (luciferase, ET cell line Huh-lucubineo-ET)
Type: cell-based
Conditions: Hepatitis C virus; inhibition of replication relative to no compound control; test concentration of 10 μM according to the fitted equation; luciferase 48-72 hours
Description: A cell line, ET (Huh-lucubineo-ET) was used for screening of compounds of the present invention for HCV RNA dependent RNA polymerase. The ET cell line was stably transfected with RNA transcripts harboring a I389luc-ubi-neo/NS3-3′/ET; replicon with firefly luciferase-ubiquitin-neomycin phosphotransferase fusion protein and EMCV-IRES driven NS3-5B polyprotein containing the cell culture adaptive mutations (E1202G; T12801; K1846T) (Krieger at al, 2001 and unpublished). The ET cells were grown in DMEM, supplemented with 10% fetal calf serum, 2 mM Glutamine, Penicillin (100 IU/mL)/Streptomycin (100 μg/mL), 1× nonessential amino acids, and 250 μg/mL G418 (“Geneticin”). They were all available through Life Technologies (Bethesda, Md.). The cells were plated at 0.5-1.0×10^4 cells/well in the 96 well plates and incubated for 24 hrs before adding nucleoside analogs. […] Luciferase activity were measured 48-72 hours later by adding a lysis buffer and the substrate (Catalog number Glo-lysis buffer E2661 and Bright-Glo luciferase system E2620 Promega, Madison, Wis.). Cells should not be too confluent during the assay. Percent inhibition of replication was plotted relative to no compound control. Under the same condition, cytotoxicity of the compounds was determined using cell proliferation reagent, WST-1(Roche, Germany). The compounds showing antiviral activities, but no significant cytotoxicities were chosen to determine IC50 and TC50. For these determinations, 10 concentrations of each compound were used. Concentrations for test compounds typically span a range of 500 fold. IC50 and TC50 values were calculated by fitting % inhibition at each concentration (I) to the following equation: % inhibition=100%/[1+10^(log IC50−log (I))*b] where b is Hill's coefficient.

**Q.** O=C(Nc1nc(-c2cccc(N(CC3CC3)CC3CC3)c2)cs1)[C@@H]1CCCN1C(=O)OCc1ccccc1 [Compound 5383, 2-{4-[3-(Bis-cyclopropylmethyl-amino)-phenyl]-thiazol-2-ylcarbamoyl}-pyrrolidine-1-carboxylic acid benzyl ester] was tested. Which inhibition at 10 µM did it give?
**A.** 47%

**Q.** O=C(Nc1nc(-c2cccc(NCC3CCCC3)c2)cs1)[C@@H]1CCCN1C(=O)OCc1ccccc1 [Compound 5319, 2-{4-[3-(Cyclopentylmethyl-amino)-phenyl]-thiazol-2-ylcarbamoyl}-pyrrolidine-1-carboxylic acid benzyl ester] was tested. Which inhibition at 10 µM did it give?
**A.** 67.4%

**Q.** CN(C(=O)c1ccc(-c2csc(NC(=O)[C@@H]3CCCN3C(=O)OCc3ccccc3)n2)cc1)c1ccccc1 [Compound 5328, 2-{4-[4-(Methyl-phenyl-carbamoyl)-phenyl]-thiazol-2-ylcarbamoyl}-pyrrolidine-1-carboxylic acid benzyl ester] was tested. Which inhibition at 10 µM did it give?
**A.** 97.3%

**Q.** Which inhibition at 10 µM does the source give for O=C(Nc1nc(C2(c3ccccc3)CCCC2)cs1)[C@@H]1CCCN1C(=O)OCc1ccccc1 [Compound 5028, 2-[4-(1-Phenyl-cyclopentyl)-thiazol-2-ylcarbamoyl]-pyrrolidine-1-carboxylic acid benzyl ester] here?
**A.** 98.9%

**Q.** For Cc1ccc(S(=O)(=O)Nc2ccc(-c3csc(NC(=O)[C@@H]4CCCN4C(=O)OCc4ccccc4)n3)cc2)cc1 [Compound 5005, 2-{4-[4-(Toluene-4-sulfonylamino)-phenyl]-thiazol-2-ylcarbamoyl}-pyrrolidine-1-carboxylic acid benzyl ester], which inhibition at 10 µM is on record?
**A.** 99.8%

**Q.** How did the inhibition at 10 µM turn out when O=C(Nc1ccccn1)c1ccc(-c2csc(NC(=O)[C@@H]3CCCN3C(=O)OCc3ccccc3)n2)cc1 [Compound 5372, 2-{4-[4-(Pyridin-2-ylcarbamoyl)-phenyl]-thiazol-2-ylcarbamoyl}-pyrrolidine-1-carboxylic acid benzyl ester] was run?
**A.** 99.9%

**Q.** Which inhibition at 10 µM does the source give for CCC(=O)Nc1ccc(-c2csc(NC(=O)[C@@H]3CCCN3C(=O)OCc3ccccc3)n2)cc1 [Compound 5017, 2-[4-(4-Propionylamino-phenyl)-thiazol-2-ylcarbamoyl]-pyrrolidine-1-carboxylic acid benzyl ester] here?
**A.** 99.7%

**Q.** Which inhibition at 10 µM does the source give for NC(=O)Nc1ccc(-c2csc(NC(=O)[C@@H]3CCCN3C(=O)OCc3ccccc3)n2)cc1 [Compound 5314, 2-[4-(4-Ureido-phenyl)-thiazol-2-ylcarbamoyl]-pyrrolidine-1-carboxylic acid benzyl ester] here?
**A.** 100%

**Q.** For O=C(NC1CC1)c1ccc(-c2csc(NC(=O)C3COCN3C(=O)OCc3ccccc3)n2)cc1 (stereo not drawn) [Compound 5311, 4-[4-(4-Cyclopropylcarbamoyl-phenyl)-thiazol-2-ylcarbamoyl]-oxazolidine-3-carboxylic acid benzyl ester], which inhibition at 10 µM is on record?
**A.** 99.7%

**Q.** With O=C(Nc1cccc(-c2csc(NC(=O)C3CCCN3C(=O)OCc3ccccc3)n2)c1)C1CCCC1 (stereo not drawn) [Compound 5026, 2-{4-[3-(Cyclopentanecarbonyl-amino)-phenyl]-thiazol-2-ylcarbamoyl}-pyrrolidine-1-carboxylic acid benzyl ester] as the molecule, how does the inhibition at 10 µM read?
**A.** 100%

**Q.** How did the inhibition at 10 µM turn out when O=C(Nc1ccc(-c2cnc(NC(=O)[C@@H]3CCCN3C(=O)OCc3ccccc3)s2)cc1)C1CCCC1 [Compound 5110, 2-{5-[4-(Cyclopentanecarbonyl-amino)-phenyl]-thiazol-2-ylcarbamoyl}-pyrrolidine-1-carboxylic acid benzyl ester] was run?
**A.** 89.6%

**Q.** With O=C(Nc1nc(-c2cccc([N+](=O)[O-])c2)cs1)[C@@H]1CCCN1C(=O)OCc1ccccc1 [Compound 5008, 2-[4-(3-Nitro-phenyl)-thiazol-2-ylcarbamoyl]-pyrrolidine-1-carboxylic acid benzyl ester; hydrobromide] as the molecule, how does the inhibition at 10 µM read?
**A.** 63%

**Q.** How did the inhibition at 10 µM turn out when O=C(NC1CC1)c1ccc(-c2csc(NC(=O)[C@@H]3CCCN3C(=O)Cc3cc(F)cc(F)c3)n2)cc1 [Compound 5315, 1-[2-(3,5-Difluoro-phenyl)-acetyl]-pyrrolidine-2-carboxylic acid [4-(4-cyclopropylcarbamoyl-phenyl)-thiazol-2-yl]-amide] was run?
**A.** 99.7%

**Q.** How did the inhibition at 10 µM turn out when CN(C(=O)c1ccc(-c2csc(NC(=O)[C@@H]3CCCN3C(=O)OCc3ccccc3)n2)cc1)C1CCCCC1 [Compound 5332, 2-{4-[4-(Cyclohexyl-methyl-carbamoyl)-phenyl]-thiazol-2-ylcarbamoyl}-pyrrolidine-1-carboxylic acid benzyl ester] was run?
**A.** 99.7%

**Q.** For COc1ccc(-c2csc(NC(=O)[C@@H]3CCCN3C(=O)OCc3ccccc3)n2)cc1Br [Compound 5016, 2-[4-(3-Bromo-4-methoxy-phenyl)-thiazol-2-ylcarbamoyl]-pyrrolidine-1-carboxylic acid benzyl ester], which inhibition at 10 µM is on record?
**A.** 100%

**Q.** For Cc1ccc(C)c(-c2cnc(NC(=O)[C@@H]3CCCN3C(=O)OCc3ccccc3)s2)c1 [Compound 5042, 2-[5-(2,5-Dimethyl-phenyl)-thiazol-2-ylcarbamoyl]-pyrrolidine-1-carboxylic acid benzyl ester], which inhibition at 10 µM is on record?
**A.** 90.3%

**Q.** For O=C(Nc1ccc(-c2csc(NC(=O)C3CCCN3C(=O)OCc3ccccc3)n2)cc1)C1CC1 (stereo not drawn) [Compound 5018, 2-{4-[4-(Cyclopropanecarbonyl-amino)-phenyl]-thiazol-2-ylcarbamoyl}-pyrrolidine-1-carboxylic acid benzyl ester], which inhibition at 10 µM is on record?
**A.** 100%

**Q.** O=C(NC1CCCC1)c1cccc(-c2cnc(NC(=O)[C@@H]3CCCN3C(=O)OCc3ccccc3)s2)c1 [Compound 5363, 2-[5-(3-Cyclopentylcarbamoyl-phenyl)-thiazol-2-ylcarbamoyl]-pyrrolidine-1-carboxylic acid benzyl ester] was tested. Which inhibition at 10 µM did it give?
**A.** 1.64%

**Q.** For O=C(Nc1nc(-c2ccc(Cl)c(Cl)c2)cs1)[C@@H]1CCCN1C(=O)OCc1ccccc1 [Compound 5034, 2-[4-(3,4-Dichloro-phenyl)-thiazol-2-ylcarbamoyl]-pyrrolidine-1-carboxylic acid benzyl ester], which inhibition at 10 µM is on record?
**A.** 100%

**Q.** Which inhibition at 10 µM does the source give for O=C(Nc1nc(-c2ccc(Br)cc2)cs1)[C@@H]1CCCN1C(=O)OCc1ccccc1 [Compound 5097, 2-[4-(4-Bromo-phenyl)-thiazol-2-ylcarbamoyl]-pyrrolidine-1-carboxylic acid benzyl ester] here?
**A.** 43.3%

**Q.** O=C(Nc1nc(C2CCOCC2)cs1)[C@@H]1CCCN1C(=O)OCc1ccccc1 [Compound 5051, 2-[4-(Tetrahydro-pyran-4-yl)-thiazol-2-ylcarbamoyl]-pyrrolidine-1-carboxylic acid benzyl ester] was tested. Which inhibition at 10 µM did it give?
**A.** 3.42%

**Q.** How did the inhibition at 10 µM turn out when CC(=O)c1ccc(-c2csc(NC(=O)[C@@H]3CCCN3C(=O)OCc3ccccc3)n2)cc1 [Compound 5309, 2-[4-(4-Acetyl-phenyl)-thiazol-2-ylcarbamoyl]-pyrrolidine-1-carboxylic acid benzyl ester] was run?
**A.** 99.5%

**Q.** How did the inhibition at 10 µM turn out when CC(=O)Nc1cccc(-c2csc(NC(=O)[C@@H]3CCCN3C(=O)OCc3ccccc3)n2)c1 [Compound 5015, 2-[4-(3-Acetylamino-phenyl)-thiazol-2-ylcarbamoyl]-pyrrolidine-1-carboxylic acid benzyl ester] was run?
**A.** 99.4%

**Q.** How did the inhibition at 10 µM turn out when O=C(NC1CC1)c1ccc(-c2csc(NC(=O)[C@@H]3CCN3C(=O)OCc3ccccc3)n2)cc1 [Compound 5301, 2-[4-(4-Cyclopropylcarbamoyl-phenyl)-thiazol-2-ylcarbamoyl]-azetidine-1-carboxylic acid benzyl ester] was run?
**A.** 100%
